Data on two substances can be found in patent US8119773B2, “Compositions and methods for facilitating heme-iron export from cells” (University of Washington, priority 2007, dated 2012).

pKd: −log10 of the molar value. Ends that are not written are not given here.

One assay deals with T1, human FLVCR (Homo sapiens, UniProt Q9Y5Y0).
T1 construct: expressed in transfected cells; host or cells: NRK (rat kidney) cells engineered to express human FLVCR
T1 sequence (Q9Y5Y0 1-555): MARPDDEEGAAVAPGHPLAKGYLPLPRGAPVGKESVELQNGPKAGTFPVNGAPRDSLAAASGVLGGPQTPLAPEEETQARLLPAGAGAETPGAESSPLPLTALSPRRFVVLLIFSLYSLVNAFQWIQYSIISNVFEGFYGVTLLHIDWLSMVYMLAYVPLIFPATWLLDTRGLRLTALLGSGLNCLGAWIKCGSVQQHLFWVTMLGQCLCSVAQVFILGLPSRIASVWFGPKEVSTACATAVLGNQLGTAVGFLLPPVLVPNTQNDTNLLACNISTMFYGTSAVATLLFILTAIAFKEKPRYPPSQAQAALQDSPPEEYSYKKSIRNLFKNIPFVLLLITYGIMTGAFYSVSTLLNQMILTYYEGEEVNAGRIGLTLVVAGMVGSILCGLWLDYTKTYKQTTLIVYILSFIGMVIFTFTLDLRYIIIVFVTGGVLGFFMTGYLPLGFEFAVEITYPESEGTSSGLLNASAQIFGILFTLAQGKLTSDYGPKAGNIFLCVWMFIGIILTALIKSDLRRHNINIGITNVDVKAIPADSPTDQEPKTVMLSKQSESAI
As to the kind of experiment: ZnMP export from NRK cells engineered to express human FLVCR, with carrier protein. It counts as cell-based. As to conditions: NRK cells expressing human FLVCR; 37° C. for 90 min.

The conditions of assay [1]: heme binding; cited from earlier work.
For assay [2], the system named is bone marrow-derived macrophages. The assay can be described thus: Ferritin studies in macrophages (ELISA) with or without hepcidin. The format is cell-based, mouse. Particulars: control and Flvcr-deleted macrophages exposed to FAC (10 μM Fe) 24 hours, washed, then 24 hours with hepcidin (1 ug/ul). On the procedure: FIGS. 4A-4B. FLVCR exports heme-iron from macrophages. (4A) Bone marrow-derived macrophages from control (striped) and mice in which Flvcr was deleted neonatally (black) were incubated in the absence or presence of FAC (10 μM Fe) for 24 or 48 hours, then washed; ferritin was measured by enzyme-linked immunosorbent (ELISA) (i). Cells were incubated with FAC for 24 hours (ii) or with IgG-coated red blood cells (RBC) for 90 min (iii), washed, then incubated for an additional 24 hours with or without hepcidin (1 ug/ul) and ferritin assayed. Data represent ferritin values in macrophages derived from two control and two deleted mice±SEM of triplicate samples per mouse. (4B) Model of macrophage heme-iron recycling.
Murine macrophage culture. Single-cell suspensions of mouse bone marrow were collected from mice 5 days after completing poly(I)-poly(C) treatment. […] Macrophages were defined by flow cytometry (Mac-1^+, f4/80^+, GR-1^−) and analyzed for ZnMP and ^55Fe-hemin export 10-24 days post in vivo deletion (after 5-19 days in culture).
Ferritin studies in macrophages. […] After 24 hrs, the samples were collected in lysis buffer (150 mM NaCl, 10 mM EDTA, 1% Triton X-100, 10 mM Tris pH 7.4), and complete protease inhibitor (Roche Diagnostics Co., Indianapolis, Ind.) and analyzed for ferritin levels as described (S16).

Description for human FLVCR: ZnMP and ^55Fe-hemin uptake and washout studies.
To gain insights into the structure and function of FLVCR, we first studied the export of zinc mesoporphyrin (ZnMP), a fluorescent heme analog that traffics similarly to heme and also blocks heme oxygenase activity.

As for hemopexin [Hpx], the “efficacy in inducing ZnMP export, relative to albumin” value with human FLVCR was 100 fold. Moreover, the negative logarithm of the Kd (pKd) in assay [1] is above 12.00.

“hepcidin (DTHFPICIFCCGCCHRSKCGMCCKT; ends and bridges not checked; cysteine pairing not given here; UniProt P81172 60-84, looked up)”: the ferritin entry in assay [2] was “increase equivalently”.
